Assay results taken from EPA's ToxRefDB 2.

Tests used:
rat [1] = conditions: Prenatal developmental toxicity study, sprague dawley, Oral, Gavage/Intubation, dose end: 17 GD
rabbit [2] = conditions: Prenatal developmental toxicity study; new zealand white; Oral; Gavage/Intubation; dose end: 19 GD; group: maternal; systemic / in life observation / body weight / body weight gain + systemic / in life observation / clinical signs / alopecia + systemic / in…
rat [3] = conditions: Chronic toxicity, sprague dawley, Oral, Gavage/Intubation, dose end: 6 month, group: systemic
rat [4] = conditions: Fertility (Segment I), sprague dawley, Oral, Gavage/Intubation, dose end: 7 GD
dog [5] = conditions: Chronic toxicity; beagle; Oral; Gavage/Intubation; dose end: 6 month; group: systemic; systemic / in life observation / body weight / body weight + systemic / in life observation / clinical signs / pulse/pressure + systemic / …
rat [6] = conditions: Fertility (Segment I), sprague dawley, Oral, Gavage/Intubation, dose end: 56 day
rat [7] = conditions: Sub-acute repeat dose toxicity, sprague dawley, Oral, Gavage/Intubation, dose end: 28 day
rat [8] = conditions: Prenatal developmental toxicity study, sprague dawley, Oral, Gavage/Intubation, dose end: 17 GD; remark: listed apart in the source
rabbit [9] = conditions: Prenatal developmental toxicity study, new zealand white, Oral, Gavage/Intubation, dose end: 19 GD, group: maternal
dog [10] = conditions: Sub-acute repeat dose toxicity; beagle; Oral; Gavage/Intubation; dose end: 1 month; group: systemic; systemic / clinical chemistry / cholesterol / cholesterol + systemic / in life observation / body weight / body weight + systemic / in life …
rat [11] = conditions: Fertility (Segment I), sprague dawley, Oral, Gavage/Intubation, dose end: 7 GD; remark: listed apart in the source
rat [12] = conditions: Developmental neurotoxicity range-finding study; wistar; Oral; Gavage/Intubation; dose end: 21 PND; group: cannot be grouped; developmental / offspring survival late / [other] / [other] + systemic / in life observation / clinical signs / tremors
dog [13] = conditions: Chronic toxicity; beagle; Oral; Feed; dose end: 52 week; group: systemic; systemic / pathology microscopic / liver / hemosiderosis + systemic / pathology microscopic / spleen / hemosiderosis
rabbit [14] = conditions: Prenatal developmental toxicity study, himalayan, Oral, Gavage/Intubation, dose end: 19 GD
rat [15] = conditions: Chronic toxicity, wistar, Oral, Feed, dose end: 728 day, group: systemic
rat [16] = conditions: Combined chronic toxicity/carcinogenicity; wistar; Oral; Feed; dose end: 24 month; group: systemic; systemic / in life observation / body weight / body weight + systemic / in life observation / body weight / body weight gain + systemic / in…
rat [17] = conditions: Multigenerational reproductive toxicity study, wistar, Oral, Feed, dose end: 2 generation
rat [18] = conditions: Subchronic oral toxicity in rodents, wistar, Feed, dose end: 3 month, group: systemic, systemic / clinical chemistry / albumin / albumin + systemic / clinical chemistry / calcium / calcium + systemic / clinical chemistry / …
rat [19] = conditions: Combined chronic toxicity/carcinogenicity, sprague dawley, Oral, Feed, dose end: 104 week, group: systemic
mouse = conditions: Combined chronic toxicity/carcinogenicity; other; Oral; Feed; dose end: 104 week; group: systemic; systemic / in life observation / body weight / body weight
dog [20] = conditions: Chronic toxicity, beagle, Oral, Feed, dose end: 52 week, group: systemic
rat [21] = conditions: Subchronic oral toxicity in rodents, fischer, Feed, dose end: 13 week, group: systemic
[22] = group: developmental, developmental / developmental malformation / bone / incomplete ossification + systemic / in life observation / body weight / fetal weight
[23] = group: maternal, systemic / in life observation / body weight / body weight + systemic / in life observation / body weight / body weight gain + systemic / in…
[24] = systemic / clinical chemistry / alanine aminotransferase (alt/sgpt) / alanine aminotransferase (alt/sgpt) + systemic / clinical chemistry / …
[25] = systemic / in life observation / clinical signs / [other] + systemic / organ weight / uterus / absolute + systemic / organ weight / uterus…
[26] = group: maternal, reproductive / offspring survival early / litter viability other / total litter loss + reproductive / reproductive performance / …
[27] = group: maternal, reproductive / reproductive performance / estrous cycle / abnormal
[28] = group: parental, systemic / in life observation / body weight / body weight gain + systemic / in life observation / clinical signs / abnormal motor movement…
[29] = group: maternal, reproductive / reproductive performance / estrous cycle / corpora lutea + reproductive / reproductive performance / implantations / …
[30] = group: parental, systemic / in life observation / body weight / body weight gain + systemic / in life observation / clinical signs / [other] + systemic / in …
[31] = group: systemic, systemic / in life observation / clinical signs / excessive or spontaneous vocalization + systemic / organ weight / salivary glands / …
[32] = group: developmental, systemic / in life observation / body weight / fetal weight
[33] = systemic / in life observation / body weight / body weight gain + systemic / in life observation / food consumption / food consumption
[34] = systemic / in life observation / body weight / body weight gain + systemic / in life observation / food consumption / food consumption + …
[35] = group: parental, systemic / in life observation / clinical signs / [other] + systemic / in life observation / body weight / body weight gain + systemic / in …
[36] = group: developmental, developmental / developmental malformation / bone / [other] + developmental / developmental malformation / bone / full supernumerary + …
[37] = group: maternal, systemic / in life observation / body weight / body weight gain + systemic / in life observation / food consumption / food consumption
[38] = systemic / in life observation / body weight / body weight + systemic / in life observation / body weight / body weight gain + systemic / …
[39] = systemic / in life observation / food consumption / food consumption
[40] = group: offspring, developmental / developmental landmark / eye opening / eye opening
[41] = group: offspring, systemic / in life observation / body weight / offspring (pup) weight + systemic / in life observation / body weight / offspring (pup) …
[42] = group: parental, systemic / in life observation / body weight / body weight + systemic / in life observation / body weight / body weight gain + systemic / …
[43] = systemic / in life observation / food consumption / food consumption + systemic / in life observation / body weight / body weight
[44] = systemic / in life observation / clinical signs / salivation
[45] = systemic / in life observation / clinical signs / salivation + systemic / in life observation / clinical signs / [other] + systemic / in …
[46] = systemic / organ weight / kidney / nos + systemic / organ weight / liver / nos + systemic / pathology microscopic / liver / hypertrophy
[47] = systemic / organ weight / kidney / nos + systemic / organ weight / liver / nos + systemic / pathology microscopic / liver / hypertrophy + …

## FC(F)(F)c1cccc(C2=CCN(CCc3ccc4ccncc4c3)CC2)c1
Rat [1]; [22]
  LEL: 7.5 mg/kg/day
  LOAEL: 7.5 mg/kg/day
  NEL: 2.5 mg/kg/day
  NOAEL: 2.5 mg/kg/day
Rat [1]; [23]
  LEL: 0.75 mg/kg/day
  LOAEL: > 7.5 mg/kg/day
  NEL: < 0.75 mg/kg/day
  NOAEL: ≥ 7.5 mg/kg/day
Rabbit [2]
  LEL: 0.01 mg/kg/day
  LOAEL: > 0.05 mg/kg/day
  NEL: < 0.01 mg/kg/day
  NOAEL: ≥ 0.05 mg/kg/day
Rat [3]; [24]
  LOAEL: > 7.5 mg/kg/day
  NOAEL: ≥ 7.5 mg/kg/day
Rat [3]; [25]
  LEL: 0.1 mg/kg/day
  NEL: < 0.1 mg/kg/day
Rat [4]; [26]
  LOAEL: > 7.5 mg/kg/day
  NOAEL: ≥ 7.5 mg/kg/day
Rat [4]; [27]
  LEL: 0.1 mg/kg/day
  NEL: < 0.1 mg/kg/day
Rat [4]; group: parental, systemic / in life observation / body weight / body weight gain
  LEL: 1 mg/kg/day
Rat [4]; [28]
  LOAEL: > 7.5 mg/kg/day
  NEL: 0.1 mg/kg/day
  NOAEL: ≥ 7.5 mg/kg/day
Dog [5]
  LEL: 0.01 mg/kg/day
  LOAEL: > 0.25 mg/kg/day
  NEL: < 0.01 mg/kg/day
  NOAEL: ≥ 0.25 mg/kg/day
Rat [6]; [29]
  LEL: 7.5 mg/kg/day
  LOAEL: > 7.5 mg/kg/day
  NEL: 1 mg/kg/day
  NOAEL: ≥ 7.5 mg/kg/day
Rat [6]; [30]
  LEL: 0.1 mg/kg/day
  LOAEL: 0.1 mg/kg/day
  NEL: < 0.1 mg/kg/day
  NOAEL: < 0.1 mg/kg/day
Rat [7]; [27]
  LEL: 1 mg/kg/day
  LOAEL: > 7.5 mg/kg/day
  NEL: 0.1 mg/kg/day
  NOAEL: ≥ 7.5 mg/kg/day
Rat [7]; [31]
  LEL: 0.1 mg/kg/day
  LOAEL: 0.1 mg/kg/day
  NEL: < 0.1 mg/kg/day
  NOAEL: < 0.1 mg/kg/day
Rat [8]; [32]
  LEL: 7.5 mg/kg/day
  LOAEL: 7.5 mg/kg/day
  NEL: 2.5 mg/kg/day
  NOAEL: 2.5 mg/kg/day
Rat [8]; [23]
  LEL: 0.75 mg/kg/day
  LOAEL: > 7.5 mg/kg/day
  NEL: < 0.75 mg/kg/day
  NOAEL: ≥ 7.5 mg/kg/day
Rabbit [9]; [33]
  LEL: 0.01 mg/kg/day
  NEL: < 0.01 mg/kg/day
Rabbit [9]; [34]
  LOAEL: > 0.05 mg/kg/day
  NOAEL: ≥ 0.05 mg/kg/day
Dog [10]
  LEL: 0.01 mg/kg/day
  LOAEL: 0.01 mg/kg/day
  NEL: < 0.01 mg/kg/day
  NOAEL: < 0.01 mg/kg/day
Rat [11]; [27]
  LEL: 0.1 mg/kg/day
  LOAEL: 0.1 mg/kg/day
  NEL: < 0.1 mg/kg/day
  NOAEL: < 0.1 mg/kg/day
Rat [11]; [35]
  LEL: 0.1 mg/kg/day
  LOAEL: 0.1 mg/kg/day
  NEL: < 0.1 mg/kg/day
  NOAEL: < 0.1 mg/kg/day

## C[N+]1(C)CCCCC1.[Cl-] [Mepiquat chloride]
Rat [12]
  LEL: 75 mg/kg/day
  LOAEL: 75 mg/kg/day
  NEL: < 75 mg/kg/day
  NOAEL: < 75 mg/kg/day
Dog [13]
  LEL: 58.4 mg/kg/day
  LOAEL: > 58.4 mg/kg/day
  NEL: 19.9 mg/kg/day
  NOAEL: ≥ 58.4 mg/kg/day
Rabbit [14]; [36]
  LEL: 100 mg/kg/day
  LOAEL: 100 mg/kg/day
  NEL: 50 mg/kg/day
  NOAEL: 50 mg/kg/day
Rabbit [14]; [37]
  LEL: 100 mg/kg/day
  LOAEL: 100 mg/kg/day
  NEL: 50 mg/kg/day
  NOAEL: 50 mg/kg/day
Rat [15]; [38]
  LOAEL: 268 mg/kg/day
  NEL: 13 mg/kg/day
  NOAEL: 106 mg/kg/day
Rat [15]; [39]
  LEL: 106 mg/kg/day
Rat [16]
  LEL: 269 mg/kg/day
  LOAEL: 269 mg/kg/day
  NEL: 105 mg/kg/day
  NOAEL: 105 mg/kg/day
Rat [17]; [40]
  LEL: 48.6 mg/kg/day
  NEL: < 48.6 mg/kg/day
Rat [17]; [41]
  LOAEL: 574 mg/kg/day
  NOAEL: 147 mg/kg/day
Rat [17]; group: parental, systemic / in life observation / body weight / body weight + systemic / in life observation / body weight / body weight gain
  LOAEL: 499 mg/kg/day
Rat [17]; [42]
  LEL: 499 mg/kg/day
  NEL: 153 mg/kg/day
  NOAEL: 153 mg/kg/day
Rat [18]
  LEL: 826 mg/kg/day
  LOAEL: 826 mg/kg/day
  NEL: < 826 mg/kg/day
  NOAEL: < 826 mg/kg/day
Rat [19]; [39]
  LEL: 186 mg/kg/day
  LOAEL: 186 mg/kg/day
Rat [19]; [43]
  NEL: 62.4 mg/kg/day
  NOAEL: 62.4 mg/kg/day
mouse
  LEL: 169 mg/kg/day
  LOAEL: > 514 mg/kg/day
  NEL: 48.9 mg/kg/day
  NOAEL: ≥ 514 mg/kg/day
Dog [20]; [44]
  LOAEL: 170 mg/kg/day
  NOAEL: < 170 mg/kg/day
Dog [20]; [45]
  LEL: 170 mg/kg/day
  NEL: < 170 mg/kg/day

## CC(O)CN(CC(C)O)CC(C)O.Nc1c(Cl)c(Cl)nc(C(=O)O)c1Cl (stereo not given) [Picloram triisopropanolamine salt]
Rat [21]; [46]
  LEL: 550 mg/kg/day
  LOAEL: 550 mg/kg/day
Rat [21]; [47]
  NEL: 90 mg/kg/day
  NOAEL: 90 mg/kg/day
